# According to US12201694B2, “Hydrogel compositions” (Hyderabad Eye Institute, priority 2018, dated 2025):
# Tests used:
# [1] = literature reference [19]; cited from earlier work
# [2] = test system: C. albicans ATCC200955; experiment: Minimal inhibitory concentration (MIC); type: cell-based, Candida albicans; settings: C. albicans ATCC200955 (Amp-B non-sensitive)
# Procedure: (§1) C. albicans cells, laboratory strain SC5314 or ATCC90028, were cultured on solid BHI (Oxoid) medium at 37° C. for 24 hours and stored at 4° C. for up to one month. Prior to experiments, a colony of C. albicans was sub-cultured into liquid BHI medium overnight at 37° C. Overnight cultures of C.albicans were adjusted to an optical density at 600 nm of 0.1 and incubated with Amphotericin polymers, which were serially diluted 1:2 from 2500-2.44 μg/ml, for 16 hours in a 96 well plate. The concentration of polymer at which there was no visible growth was determined to be the MIC. C.albicans (Robin) ATCC200955, C.tropicalis ATCC200956, A.flavus ATCC16883 and F. keratoplasticum ATCC36031 were similarly cultured on solid Sabrauds (Oxoid) medium at 37° C. for 24 hours and stored at 4° C. for up to one month. Prior to experiments, colonies were sub-cultured into liquid Sabrauds medium overnight at 37° C. All liquid cultures were static apart from A.flavus which was incubated shaking at 100 rpm.
# [3] = physiological pH; well known; cited from earlier work
# [4] = test system: C. albicans ATCC90028; experiment: Minimal inhibitory concentration (MIC), no visible growth after 16 h; type: cell-based, Candida albicans
# Procedure: as §1
# [5] = test system: C. albicans SC5314; experiment: as above; type: cell-based, Candida albicans
# Procedure: as §1
# [6] = test system: C. tropicalis ATCC200956; experiment: Minimal inhibitory concentration (MIC); type: cell-based, Candida tropicalis; settings: C. tropicalis ATCC200956 (Amp-B non-sensitive)
# Procedure: as §1, with “Overnight cultures of C.albicans were adjusted to an optical density at 600 nm of 0.1 and incubated with Amphotericin polymers, which were serially diluted 1:2 from 2500-2.44 μg/ml, for 16 hours in a 96 well plate.” left out
# [7] = test system: F. keratoplasticum ATCC36031; experiment: Minimal inhibitory concentration (MIC); type: cell-based, Fusarium keratoplasticum; settings: F. keratoplasticum ATCC 36031
# Procedure: as §1
# [8] = test system: A. flavus ATCC16883; experiment: Minimal inhibitory concentration (MIC); type: cell-based, Aspergillus flavus; settings: A. flavus ATCC 16883
# Procedure: as §1
# [9] = from weight MIC and molar density
structure (smiles),measurement,setting,value
C[C@@H]1[C@H](O)[C@@H](C)/C=C/C=C/C=C/C=C/C=C/C=C/C=C/[C@H](O[C@@H]2O[C@H](C)[C@@H](O)[C@H](N)[C@@H]2O)C[C@@H]2O[C@](O)(C[C@@H](O)C[C@@H](O)[C@H](O)CC[C@@H](O)C[C@@H](O)CC(=O)O[C@H]1C)C[C@H](O)[C@H]2C(=O)O [Amphotericin B],MIC for amphotericin B,[1],4.68 to 150 µM
same,Weight based MIC,[2],>2500 µg·mL
same,solubility in water and saline solution,[3],insoluble
same,Weight based MIC,[4]; C. albicans ATCC90028,0.5 µg·mL
same,MIC against ATCC90028,"[4]; C. albicans ATCC90028, 16 hours",4 µg/mL
same,Molar MIC,"[4]; C. albicans ATCC90028, from weight MIC and molar density",4800 µM
same,Weight based MIC,[5]; C. albicans SC5314,0.4 µg·mL
same,MIC against SC5314,"[5]; C. albicans SC5314, 16 hours",0.4 µg/mL
same,Molar MIC,"[5]; C. albicans SC5314, from weight MIC and molar density",500 µM
same,Weight based MIC,[6],>2500 µg·mL
same,Weight based MIC,[7],0.2 µg·mL
same,Molar MIC,[7]; [9],250 µM
same,Weight based MIC,[8],1.5 µg·mL
same,Molar MIC,[8]; [9],1800 µM
